In the supplement of paper PMC10307832:

Columns and labels:
Experiment in all cases: relative viability (nuclei count vs DMSO), 5 days (fraction); higher = more cells survive
[1] = compound: Cc1ccc(NC(=O)c2ccc(CN3CCN(C)CC3)cc2)cc1Nc1nccc(-c2cccnc2)n1 [Imatinib] + Nc1nc2[nH]cc(CCc3ccc(C(=O)N[C@@H](CCC(=O)O)C(=O)O)cc3)c2c(=O)[nH]1 [Pemetrexed] (partner 0.2 µM)
Method in brief: (§1)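 Relative viability was taken as the ratio of nuclei in treated wells to nuclei in vehicle wells. Lung cancer cell lines in 1536-well plates received compounds by pin tool one day after seeding, either one drug alone or a fixed anchor-drug dose plus five library-drug doses (not always all listed) in √10 steps. Nuclei were counted on 4× images after 5 days of treatment, and values are medians of duplicate plates.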

[2] = compound: Cc1ccc(NC(=O)c2ccc(CN3CCN(C)CC3)cc2)cc1Nc1nccc(-c2cccnc2)n1 [Imatinib] + CC(C)C[C@H](NC(=O)[C@H](Cc1ccccc1)NC(=O)c1cnccn1)B(O)O [Bortezomib] (partner 0.002 µM)
Method in brief: as §1

[3] = compound: Cc1ccc(NC(=O)c2ccc(CN3CCN(C)CC3)cc2)cc1Nc1nccc(-c2cccnc2)n1 [Imatinib] + CCNC(=O)c1noc(-c2cc(C(C)C)c(O)cc2O)c1-c1ccc(CN2CCOCC2)cc1 [Luminespib] (partner 0.01 µM)
Method in brief: as §1

[4] = compound: Cc1ccc(NC(=O)c2ccc(CN3CCN(C)CC3)cc2)cc1Nc1nccc(-c2cccnc2)n1 [Imatinib]
Method in brief: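 Acceptance criteria were a control CV below 25% and at least one doubling per plate. Lung cancer cell lines in 1536-well plates got five library-drug doses (not always all listed) √10 apart by pinning and were left 5 days with no medium change. Viability divides treated-well nuclei by vehicle-well nuclei and is the median across plates. Nuclei were counted by MetaXpress from 4× Hoechst images.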

| Cell Line | relative viability ([1]; first compound 0.02 µM) | relative viability ([1]; first compound 0.06325 µM) | relative viability ([1]; first compound 0.2 µM) | relative viability ([1]; first compound 0.6325 µM) | relative viability ([1]; first compound 2 µM) | relative viability ([2]; first compound 0.02 µM) | relative viability ([2]; first compound 0.06325 µM) | relative viability ([2]; first compound 0.6325 µM) | relative viability ([3]; first compound 0.02 µM) | relative viability ([3]; first compound 0.06325 µM) | relative viability ([3]; first compound 0.2 µM) | relative viability ([3]; first compound 0.6325 µM) | relative viability ([3]; first compound 2 µM) | relative viability ([4]; 0.06325 µM) | relative viability ([4]; 0.2 µM) | relative viability ([4]; 0.6325 µM) | relative viability ([4]; 2 µM) | relative viability ([2]; first compound 0.2 µM) | relative viability ([4]; 0.02 µM) | relative viability ([2]; first compound 2 µM) |
| --- | --- | --- | --- | --- | --- | --- | --- | --- | --- | --- | --- | --- | --- | --- | --- | --- | --- | --- | --- | --- |
| NCI-H596 | 0.497 | 0.507 | 0.509 | 0.466 | 0.487 | 1.2 | 1.02 | 0.944 | 0.984 | 1.29 | 1.01 | 0.798 | 0.91 | 0.903 | 1.03 | 1.01 | 0.907 |  |  |  |
| HCC-827 | 0.283 | 0.285 | 0.249 | 0.267 | 0.255 |  | 1 | 1.02 |  | 0.322 | 0.807 | 0.545 | 0.729 | 1.04 |  | 1.05 | 1.03 | 1.04 |  |  |
| NCI-H1734 | 0.402 |  | 0.425 | 0.377 | 0.388 | 1.3 |  | 0.938 | 0.194 | 0.204 | 0.181 | 0.177 | 0.233 |  | 1.09 | 0.996 | 0.876 | 1.02 | 1.04 |  |
| NCI-H2347 | 0.371 | 0.44 | 0.416 | 0.467 | 0.416 | 0.846 |  | 1 | 0.499 | 0.425 | 0.431 | 0.475 | 0.608 | 0.825 | 1.13 | 1.07 | 0.977 | 1.04 | 1.09 | 0.876 |
